Data reported in patent US20240271180A1, “METHOD FOR DETECTING CONTAMINATING LIPASE ACTIVITY” (BOEHRINGER INGELHEIM INTERNATIONAL GMBH, priority 2020, published 2024).

How the values were obtained:
[1] = Auto-hydrolysis of 4-MU esters; type: physicochemical; details: 30 μM, AMT assay buffer, 10 mM CHAPS, pH 5.5, 1800 seconds; compared to e.g. butyrate (4-MUB)
[2] = system: lipase activity in drug substance samples (Product G, B, F) and UF/DF sample of Product D; experiment: 4-MUD lipase assay with or without CHAPS; type: biochemical; details: 10 mM CHAPS (above CMC) vs without, 30 μM 4-MUD, pH 5.5
Description: First, a surfactant was tested above its CMC (critical micelle concentration). Therefore 10 mM CHAPS were added to the assay. […] The samples tested were drug substance samples comprising Product G, Product B, Product F and a sample following ultrafiltration/diafiltration of Product D, each added at 72 μL per well. […] Without being bound by theory it is hypothesized that a surfactant creates an environment that promotes lipase activity by allowing the rearrangement and opening of the lid or flap, which has been described to cover the active site (Grochulski P, Li Y, Schrag J D, et al. Protein Sci 1994; 3:82-91 and Grochulski P, Bouthillier F, Kazlauskas R J, et al. Biochemistry 1994; 33:3494-500). Therefore, a concentration of 10 mM CHAPS in the final reaction-mix was selected.

[3] = system: hydrolytic activity of PPL and in BDS B and BDS E; experiment: Comparison of surfactants in 4-MUD lipase assay; type: biochemical; details: 10 mM CHAPS vs 0.25% Triton X-100 vs 0.25% Triton X-100 and 0.125% gum arabicum, pH 5.5
Description: Therefore, hydrolytic activity of PPL (0.024 mg/ml in the reaction mixture) and in BDS B and BDS E (2.4 mg/ml in the reaction mixture) was measured in ATM buffer, pH 5.5, with either 10 mM CHAPS, 0.25% Triton X-100 or 0.25% Triton X-100 and 0.125% gum arabicum. […] Gum arabicum is an emulsifier and no effect of gum arabicum on the activity has been observed in any of the experiments.

[4] = derivable from literature; cited from earlier work
[5] = system: hydrolytic activity of an exemplary drug product sample; details: NaCl 7.8125-1000 mM, 30 μM 4-MUD, AMT buffer without NaCl, pH 5.5
Description: Therefore, the influence of the ionic strength on the measured hydrolytic activity was tested. Hydrolytic activity of an exemplary drug product sample was measured in the presence of varying concentrations of NaCl (1000 mM-7.8125 mM).

[6] = system: hydrolytic activity responsible for polysorbate degradation in a drug product sample (Product D); experiment: PS20 degradation in drug product, HPLC-CAD; details: 1 μM Orlistat, 0.2 mg/mL PS20, RT, pH 5.5, up to 56 days, vs control (DMSO only)
[7] = system: hydrolytic activity of a drug product sample (Product D); experiment: 4-MUD lipase assay with Orlistat; type: biochemical; details: Orlistat 7.3 nM-20 μM, 30 μM 4-MUD, AMT buffer pH 5.5
PPL = biological target: T1, PPL (Sus scrofa, UniProt P00591); details: Jahn et al.; cited from earlier work
T1 sequence (P00591 1-450): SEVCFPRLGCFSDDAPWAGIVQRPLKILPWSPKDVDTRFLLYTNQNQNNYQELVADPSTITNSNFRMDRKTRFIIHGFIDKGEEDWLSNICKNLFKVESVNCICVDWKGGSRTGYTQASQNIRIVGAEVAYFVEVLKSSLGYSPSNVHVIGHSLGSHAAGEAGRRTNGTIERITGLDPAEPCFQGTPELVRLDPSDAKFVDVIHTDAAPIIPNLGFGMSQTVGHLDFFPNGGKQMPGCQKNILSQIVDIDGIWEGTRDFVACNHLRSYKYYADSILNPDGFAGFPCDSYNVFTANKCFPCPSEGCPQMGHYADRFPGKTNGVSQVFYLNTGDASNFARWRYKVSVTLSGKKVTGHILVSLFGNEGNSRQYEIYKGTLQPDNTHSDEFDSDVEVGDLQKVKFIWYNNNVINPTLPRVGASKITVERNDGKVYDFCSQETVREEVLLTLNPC

With `CCCCCCCCCC(=O)Oc1ccc2c(C)cc(=O)oc2c1` [4-MUD, 4-methylumbelliferyl decanoate] the auto-hydrolysis [1] was “better resistance to auto-hydrolysis”.

In the case of `C[C@H](CCC(=O)NCCC[N+](C)(C)CCCS(=O)(=O)[O-])[C@H]1CC[C@H]2[C@@H]3[C@H](O)C[C@@H]4C[C@H](O)CC[C@]4(C)[C@H]3C[C@H](O)[C@]12C` [CHAPS, 3-[(3-cholamidopropyl)dimethylammonio]-1-propanesulfonate], the “effect on lipase hydrolysis” value [2] is given as “lipase hydrolysis was increased”, the “hydrolytic activity compared between surfactants” value [3] is given as “outperforms Triton X-100 and Triton X-100 and gum arabicum” and the “critical micelle concentration (CMC)” value [4] is given as “about 6 mM”.

For `C[C@H](CCC(=O)NCCC[N+](C)(C)CC(O)CS(=O)(=O)[O-])[C@H]1CC[C@H]2[C@@H]3[C@H](O)C[C@@H]4C[C@H](O)CC[C@]4(C)[C@H]3C[C@H](O)[C@]12C` (stereo partly shown) [CHAPSO, 3-([3-Cholamidopropyl)dimethylammonio]-2-hydroxy-1-propanesulfonate], the “critical micelle concentration (CMC)” value [4] is given as “about 8 mM”.

In the case of `[Cl-].[Na+]` [NaCl], the “NaCl concentration at which lipase activity decreased” value [5] is reported as at least 250 mM.

In the case of `CCCCCCCCCCC[C@@H](C[C@@H]1OC(=O)[C@H]1CCCCCC)OC(=O)[C@H](CC(C)C)NC=O` [Orlistat], the “degradation of PS20” value [6] is reported as “reduced degradation of PS20” and the “inhibition of lipase activity” value [7] is reported as “inhibited lipase activity in a concentration dependent manner”.

For `CCCCCCCCCCCC[N+](C)(C)CCCS(=O)(=O)[O-]` [Zwittergent 3-12, n-Dodecyl-N,N-dimethyl-3-ammonio-1-propanesulfonate], the “critical micelle concentration (CMC)” value [4] is given as 2 to 4 mM.

In the case of “polyethylene glycol tert-octylphenyl ether [Triton X-100]”, the “effect on PPL activity” value (PPL) is given as “de-activating effect”.
